Assay [1] relates to TM91C235 cells. The assay can be described thus: In vitro reversal activity (cell growth suppression, 3H-hypoxanthine incorporation) in TM91C235 cells. It is filed as cell-based, Plasmodium falciparum. The conditions noted are these: for Control % sup: test compounds only; for restoring the drug sensitivity of the mefloquine resistant cell line: coadministration with mefloquine. An excerpt: For quantitative in vitro drug susceptibility testing, two well characterized P. falciparum clones, W2 and D6, were used. See Oduola et al. (1988) Exp Parasitol 66:86-95, which is herein incorporated by reference. W2 is a clone of the Indochina I isolate and is resistant to chloroquine and pyrimethamine, but susceptible to mefloquine. D6 is a clone from the Sierra I/UNC isolate and is susceptible to chloroquine and pyrimethamine, but has reduced susceptibilities to mefloquine and halofantrine. TM91C235 was isolates from Thailand and is highly resistant to mefloquine, chloroquine, and quinine.
The in vitro antimalarial drug susceptibility assay used is a modification of the procedures first published by Desjardins, et al. with modifications developed by Milhous, et al. See Desjardins, R. E., et al. (1979) Antimicrobial Agents Chemother 16:710-718; and Milhous, et al. (1985) Antimicrobial Agents Chemother 27:525-530, which are herein incorporated by reference. In brief, the assay is based on the incorporation of radiolabeled hypoxanthine by the parasites and inhibition of isotope incorporation is attributed to activity of known or candidate antimalarial drugs. For each assay, proven antimalarials, such as chloroquine, mefloquine, quinine, artemisinin, pyrimethamine and sulfadoxine, were used as controls. The incubation period was 66 hours and the starting parasitemia was 0.2% with a 1% hematocrit. The media used was RPMI-1640 culture media with no folate or p-aminobenzoic acid (PABA). Albumax may be used instead of 10% normal heat inactivated human plasma.
If a candidate compound was tested without any prior knowledge of its activity or solubility, the compound was dissolved directly in dimethylsulfoxide (DMSO) and diluted 400 fold with complete culture media. These unknown compounds were normally started at a highest concentration of about 50,000 ng/ml. The compounds were then diluted 2-fold, 11 times, to give a concentration range of about 1,048-fold. These dilutions were performed automatically by a Biomek 1000 or 2000 Liquid Handling System into 96-well microtiter plates.
(§1) 25 μl of each diluted candidate compound was then transferred to test plates, 200 μl of parasitized erythrocytes (0.2% parasitemia and 1% hematocrit) were added, and incubated at 37° C. in a controlled environment of 5% CO2, 5% O2 and 90% N2. After 42 hours, 25 μl of ^3H-hypoxanthine was added and the plates were incubated for an additional 24 hours. At the end of the 66 hour incubation period, the plates were frozen at −70° C. to lyse the red cells and later thawed and harvested onto glass fiber filter mats by using a 96-well cell harvester. The filter mats were then counted in a scintillation counter and the data was analyzed.
Each of these test compounds were tested under three different concentrations, 5000, 500, and 50 ng/ml, in the presence of 10 ng/ml of chloroquine and 5 ng/ml of mefloquine. […] Thus, the compounds of the present invention may be used to treat, prevent or inhibit drug resistant malaria.

In assay [2] the test system is RCS. The assay can be described thus: FIC index in RCS isolate. The class given is cell-based, Plasmodium falciparum. Set-up: key: 1.0 = additive; <1.0 synergy; >1.0 antagonism. The conditions noted are these: isolate from Brazil; same method as for W-2. The procedure:
(§2) Fifty percent inhibitory concentrations (IC50s) were determined for each candidate compound alone and for candidate compounds in fixed combinations of their respective IC50s (1:1, 1:3, 3:1). […] See Elion, G. V., et al. (1954) J Biol Chem 208:477-488, which is herein incorporated by reference. The FIC is the actual IC50 of one compound in the presence of a second compound but is expressed as a fraction of its IC50 when used alone. This index is a mathematical representation of the isobologram such that an FIC index of 1.0 represents the line of additive on the isobologram. An FIC index of less than 1.0 represents synergy or potentiation and an FIC index of greater than 1.0 represents antagonism.
(§3) Parasites from different regions responded differently to the compounds of the present invention. The same assay method described above for W-2 was used except that the strains used were isolated from Thailand, Brazil, and Peru, respectively.

For assay [3], the system named is TM91C235. Description: FIC index in TM91C235 isolate. The arrangement: key: 1.0 = additive; <1.0 = synergy; >1.0 = antagonism. The conditions noted are these: isolate from Southeast Asia (Thailand); same method as for W-2. It is filed as cell-based, Plasmodium falciparum. The procedure:
Fifty percent inhibitory concentrations (IC50s) were determined for each candidate compound alone and for candidate compounds in fixed combinations of their respective IC50s (1:1, 1:3, 3:1). […] The FIC is the actual IC50 of one compound in the presence of a second compound but is expressed as a fraction of its IC50 when used alone. This index is a mathematical representation of the isobologram such that an FIC index of 1.0 represents the line of additive on the isobologram. An FIC index of less than 1.0 represents synergy or potentiation and an FIC index of greater than 1.0 represents antagonism.
The same assay method described above for W-2 was used except that the strains used were isolated from Thailand, Brazil, and Peru, respectively.

In assay [4] the test system is Plasmodium falciparum W2 clone. The assay can be described thus: FIC index with chloroquine (isobologram analysis) in W2 clone. The class given is cell-based. Set-up: key: 1.0 = additive; <1.0 = synergy; >1.0 = antagonism. The conditions noted are these: 1:1 combination of drug and chloroquine; chloroquine-resistant W2 clone. The procedure: In brief, the assay is based on the incorporation of radiolabeled hypoxanthine by the parasites and inhibition of isotope incorporation is attributed to activity of known or candidate antimalarial drugs. For each assay, proven antimalarials, such as chloroquine, mefloquine, quinine, artemisinin, pyrimethamine and sulfadoxine, were used as controls. The incubation period was 66 hours and the starting parasitemia was 0.2% with a 1% hematocrit. […] Albumax may be used instead of 10% normal heat inactivated human plasma.
as §1
The FIC is the actual IC50 of one compound in the presence of a second compound but is expressed as a fraction of its IC50 when used alone. This index is a mathematical representation of the isobologram such that an FIC index of 1.0 represents the line of additive on the isobologram. An FIC index of less than 1.0 represents synergy or potentiation and an FIC index of greater than 1.0 represents antagonism.
In the isobologram graphs as shown in FIGS. 1-3, the x-axis is fractional inhibitory concentration (FIC) of chloroquine and the y-axis is FIC of chemosensitizing agent. The FIC is the actual IC50 of one drug in the presence of the second drug but is expressed as a fraction of its IC50 when used alone. If the isobologram graph is a straight line, it represents an additive effect of the two drugs. If the graph forms a concave curve below the line, it indicates synergy or potentiation of the combination. Below the line means synergy or potentiation and above the line means antagonism.

Assay [5] concerns Peruvian PC49. Description: FIC index in Peruvian PC49 isolate. It is filed as cell-based, Plasmodium falciparum. Set-up: key: 1.0 = additive; <1.0 synergy; >1.0 antagonism. The conditions noted are these: isolate from South America (Peru); same method as for W-2. The procedure: as §2, §3
Where [6] appears, read: test compound 50 ng/ml combined with 5 ng/ml mefloquine.
[7] abbreviates: test compound 50 ng/ml combined with 10 ng/ml chloroquine.
Setting [8] is: test compound 500 ng/ml combined with 5 ng/ml mefloquine.
Where [9] appears, read: test compound 500 ng/ml combined with 10 ng/ml chloroquine.
Setting [10] is: test compound 5000 ng/ml combined with 5 ng/ml mefloquine.
Setting [11] is: test compound 5000 ng/ml combined with 10 ng/ml chloroquine.

On to `CN(C)CCCCN1c2ccccc2Sc2ccccc21` [7a, 10-(4-Dimethylaminobutyl)phenothiazine], for which the “Mefloquine % SUP” value was 2% in assay [1] (setting [6]), 31% in assay [1] (setting [8]) and 92% in assay [1] (setting [10]). The Chloroquine % sup in assay [1] (setting [7]) is 30%; in assay [1] (setting [9]), 97%; in assay [1] (setting [11]) it was 100%. The values for the Control % sup in assay [1] (50 ng/ml), in assay [1] (500 ng/ml) and in assay [1] (5000 ng/ml) were 17%, 27% and 92%, respectively. Moreover, the “FIC index RCS” value in assay [2] is recorded as 0.51. In addition, the “FIC index TM91C235” value in assay [3] is on record as 0.28. Also, the “FIC (fractional inhibitory concentration) index” value in assay [4] is recorded as 0.23.
On to `Cc1ccc(CNCCCCN2c3ccccc3Sc3ccccc32)cc1` [7c, 10-(4-Methylbenzylaminobutyl)phenothiazine], for which the “restoring the drug sensitivity of the mefloquine resistant cell line” value in assay [1] is “not very active”. Further, the “Mefloquine % SUP” value in assay [1] (setting [6]) worked out at 0%; in assay [1] (setting [8]) it was 0%; in assay [1] (setting [10]), 13%. The values for the Chloroquine % sup in assay [1] (setting [7]), in assay [1] (setting [9]) and in assay [1] (setting [11]) were 14%, 27% and 62%, respectively. Besides, the Control % sup in assay [1] (50 ng/ml) amounted to 13%; in assay [1] (500 ng/ml), 18%; in assay [1] (5000 ng/ml) it was 35%.
As for `c1ccc(CN(CCCCN2c3ccccc3Sc3ccccc32)Cc2ccccc2)cc1` [7d, 10-(4-Dibenzylaminobutyl)phenothiazine], the “restoring the drug sensitivity of the mefloquine resistant cell line” value in assay [1] is given as “not very active”. The figures for the “Mefloquine % SUP” value in assay [1] (setting [6]), in assay [1] (setting [8]) and in assay [1] (setting [10]) were 0%, 3% and 9%, respectively. The Chloroquine % sup came to 12% in assay [1] (setting [7]), 16% in assay [1] (setting [9]) and 25% in assay [1] (setting [11]). Moreover, the Control % sup in assay [1] (50 ng/ml) was 7%; in assay [1] (500 ng/ml), 10%; in assay [1] (5000 ng/ml), 22%.
Consider `c1ccc2c(c1)Sc1ccccc1N2CCCCN1CCCCC1` [7f, 10-(4-Piperidin-1-yl-butyl)phenothiazine], for which the “FIC index RCS” value in assay [2] turned out to be 0.68. Further, the “FIC index Peruvian PC49” value in assay [5] was 0.83. The “FIC index TM91C235” value in assay [3] is on record as 0.52. For the same compound, the “FIC (fractional inhibitory concentration) index” value in assay [4] is reported as 0.49.
The matching figures for `c1ccc2c(c1)Sc1ccccc1N2CCCCN1CCOCC1` [7g, 10-(4-Morpholin-4-yl-butyl)phenothiazine]: 0.37, 0.81, 0.32 and 0.39.
In the same order, the values of `CN1CCN(CCCCN2c3ccccc3Sc3ccccc32)CC1` [7h, 10-[4-(4-Methyl-piperazin-1-yl)-butyl]phenothiazine] are 0.49, 0.98, 0.48 and 0.4.
As to `Cc1ccc(CNCCCCN2c3ccccc3CCc3ccccc32)cc1` [7k, 5-(4-Methylbenzylaminobutyl)iminodibenzyl], the “Mefloquine % SUP” value was 20% in assay [1] (setting [6]), 22% in assay [1] (setting [8]) and 41% in assay [1] (setting [10]). Also, the Chloroquine % sup in assay [1] (setting [7]) came to 10%; in assay [1] (setting [9]), 20%; in assay [1] (setting [11]), 33%. Moreover, the figures for the Control % sup in assay [1] (50 ng/ml), in assay [1] (500 ng/ml) and in assay [1] (5000 ng/ml) were 30%, 32% and 60%, respectively.
`c1ccc(CN(CCCCN2c3ccccc3CCc3ccccc32)Cc2ccccc2)cc1` [7l, 5-(4-Dibenzylaminobutyl)iminodibenzyl]: the entries for the “Mefloquine % SUP” value in assay [1] (setting [6]), in assay [1] (setting [8]) and in assay [1] (setting [10]) were 14%, 22% and 19%, respectively. For the same compound, the Chloroquine % sup is 6% in assay [1] (setting [7]), 8% in assay [1] (setting [9]) and 13% in assay [1] (setting [11]). The Control % sup in assay [1] (50 ng/ml) was 11%; in assay [1] (500 ng/ml), 17%; in assay [1] (5000 ng/ml), 13%.
With `CN1CCN(CCCCN2c3ccccc3CCc3ccccc32)CC1` [7p, 5-[4-(4-Methyl-piperazin-1-yl)-butyl]iminodibenzyl], the “FIC index RCS” value in assay [2] was found to be 0.66. The “FIC index TM91C235” value in assay [3] is given as 0.54. Besides, in assay [4], the “FIC (fractional inhibitory concentration) index” value amounted to 0.52.
The matching figures for `CCN(CC)CCCCN(c1ccccc1)c1ccccc1` [7s, N,N-Diethyl-N′,N′-diphenyl-butane-1,4-diamine]: 0.33, 0.3 and 0.48.
The matching figures for `c1ccc(N(CCCCN2CCCC2)c2ccccc2)cc1` [7t, Diphenyl-(4-pyrrolidin-1-yl-butyl)amine]: 0.37, 0.32 and 0.45.
Consider `CCN(CC)CCCCCCN1c2ccccc2CCc2ccccc21` [7w, 5-(6-Diethylaminohexyl)iminodibenzyl], for which the “FIC index RCS” value in assay [2] is listed as 0.72. Further, the “FIC index TM91C235” value in assay [3] was found to be 0.59. In addition, in assay [4], the “FIC (fractional inhibitory concentration) index” value amounted to 0.48.
For the compound `CCN(CC)CCCC(C)Nc1ccnc2cc(Cl)ccc12` (stereo not shown) [chloroquine], the “cell growth inhibition of TM91C235 cells by drug alone” value in assay [1] (10 ng/ml of chloroquine alone) is “did not inhibit the cell growth”.
Consider `OC(c1cc(C(F)(F)F)nc2c(C(F)(F)F)cccc12)C1CCCCN1` (stereo not shown) [mefloquine, reference compound], for which, in assay [1] (5 ng/ml of mefloquine alone), the “cell growth inhibition of TM91C235 cells by drug alone” value is on record as “did not inhibit the cell growth”.
